Columns and labels:
neuronal cell lines = assay: Cytotoxicity towards neuronal cell lines (similar procedures); assay type: cell-based
[1] = tested on: Class A scavenger receptor (SR-A); assay: Scavenger receptor expression by flow cytometry, SR-A; assay type: cell-based, murine; details: cultured macrophages, compound in the absence of LDL
Procedure: Cell surface CD36 and SR-A were measured by flow cytometry using CD36 (BD Biosciences Pharmingen, San Diego, Calif.) and CD204 (Serotec, Oxford, UK) specific monoclonal antibodies. See Liao et al. (2000) Arterioscler. Thromb. Vasc. Biol. 20: 1968-75; Hu et al. (1996) Blood 87: 2020-28. Murine macrophage J774A.1 cells were serum-starved overnight in media with 0.5% BSA. Cells (1×10^6) treated with cholesterol ozonation products or cholesterol ozonation product complexed with LDL for specified times were then washed twice with PBS. […] Expression of either CD36 or SR-A was determined with CD36 (BD Biosciences Pharmingen, San Diego, Calif.) and CD204 (Serotec, Oxford, U.K.) specific monoclonal antibodies, respectively. After washing off the primary antibody, secondary antibodies were added, cells were washed again, then analyzed on a FACS calibur 2 (Becton Dickinson, Sparks, Md.) flow cytometer and analyzed by CellQuant software. Results were expressed as mean fluorescence intensity±standard error of the mean (SEM) of at least duplicate determinations. Significance was determined using a student two-tail t test, with (*) indicating p<0.05, and (**) indicating p<0.01 versus the control.

CD36 = assay: Scavenger receptor expression by flow cytometry, CD36; assay type: cell-based, murine
Procedure: Cell surface CD36 and SR-A were measured by flow cytometry using CD36 (BD Biosciences Pharmingen, San Diego, Calif.) and CD204 (Serotec, Oxford, UK) specific monoclonal antibodies. See Liao et al. (2000) Arterioscler. Thromb. Vasc. Biol. 20: 1968-75; Hu et al. (1996) Blood 87: 2020-28. Murine macrophage J774A.1 cells were serum-starved overnight in media with 0.5% BSA. Cells (1×10^6) treated with cholesterol ozonation products or cholesterol ozonation product complexed with LDL for specified times were then washed twice with PBS. After harvesting the cells by scraping, they were fixed with 6% paraformaldehyde for 20 min; Cells were then resuspended in PBS containing 2% heat-inactivated FCS, 0.05% NaN3 and appropriate primary antibody, antibody conjugate or isotype control (1:100 dilution) and incubated on ice for 30 min. Expression of either CD36 or SR-A was determined with CD36 (BD Biosciences Pharmingen, San Diego, Calif.) and CD204 (Serotec, Oxford, U.K.) specific monoclonal antibodies, respectively. After washing off the primary antibody, secondary antibodies were added, cells were washed again, then analyzed on a FACS calibur 2 (Becton Dickinson, Sparks, Md.) flow cytometer and analyzed by CellQuant software. Results were expressed as mean fluorescence intensity±standard error of the mean (SEM) of at least duplicate determinations. Significance was determined using a student two-tail t test, with (*) indicating p<0.05, and (**) indicating p<0.01 versus the control.

[2] = tested on: murine macrophage J774A.1; assay: Modified Boyden chamber migration (chemotaxis) assay; assay type: cell-based
Procedure: Chemotaxis and invasion assays were performed using a modified Boyden chamber migration assay. Zwirner et al. (1998) Eur. J. Immunol. 28: 1570-77; Wilkinson (1988) Methods Enzymol. 162: 38-50. Assays were set up on MultiScreen-MIC plates (Millipore, Billerica, Mass., USA) with polyvinylpyrrolidone-free polycarbonate membranes (5 μm pore size). Cells (murine macrophage J774A.1) were washed and resuspended in serum-free DMEM containing 0.2% BSA at 1×10^6 cells/ml. Fifty microliters of cells were added to the upper wells and 150 μl of chemoattractant in DMEM/0.2% BSA were added to the lower wells of the microchamber. Incubation time was for 4 h at 37° C. in an 8% CO2 atmosphere. After swiping cells off the upper side of the membrane, cells on the lower side were visualized by either staining and phase contrast microscopy, or fluorescence. Cells that had adhered to the membrane were stained using a DiffQuik staining kit (Dade Behring, Newark, Del.). Each experiment was performed in triplicate and the numbers of migrating cells were counted in five fields at ×200. Cells harvested with PBS-EDTA for fluorescent labeling were washed two times with PBS, then resuspended in serum-free medium containing calcein AM (5 μM). Cells were incubated for 30 min (37° C., 5% CO2) with gentle intermittent mixing. Calcein-labeled cells were washed twice, and calcein fluorescence ([…]) was measured using a SPECTRAmax™ GEMINI dual-scanning microplate spectrofluorometer. Fluorescence measurements were compared to a standard curve, generated by dilution of cells in PBS/BSA in 100 μl, dispensed into 96-well plates. Fluorescence was quantified as described above.

E-selectin (CD62E) = assay: Endothelial adhesion molecule expression by ELISA, E-selectin; assay type: cell-based, human
Procedure: (§1) Endothelial cell surface adhesion molecule expression was measured by ELISA, using anti-human CD54 (ICAM-1), CD106 (VCAM-1) and CD62E (E-Selectin) antibodies (Leinco Technologies, Inc., St. Louis, Mo.). The ELISA method was modified from previously described procedures.
(§2) Cells were then incubated with antibodies to VCAM-1, E-selectin, or ICAM-1 diluted 1:400 in PBS containing 5% FCS at 37° C. for 30 min. Wells were washed two times with PBS, then incubated with horseradish peroxidase (HRP)-conjugated goat anti-mouse IgG (Southern Biotechnology Associates, Birmingham, Ala., USA) in PBS/5% FCS at 37° C. for 30 min. The wells were washed four times with PBS, then incubated with H2O2/3,3′,5,5′-tetramethyl-benzidine peroxidase substrate (Pierce Chemical, Rockford, Ill., USA) for 30 min in the dark. The reaction was stopped by adding 25 μl of 8 N H2SO4, and the plates read on a microplate reader, blanking on wells stained with only secondary antibody. Each assay was performed in triplicate and the data are reported as the mean±SEM as a percentage of the expression level of the vehicle. To study the effect of cholesterol ozonation product 5a concentration (5-50 μM) on E-selectin expression, the assay was performed in an identical fashion as described above, with each point being the mean±SEM of at least duplicate measurements.

VCAM-1 (CD106) = assay: Endothelial adhesion molecule expression by ELISA, VCAM-1; assay type: cell-based, human
Procedure: as §1, §2

U-937 monocytes cells = assay: Monocyte adhesion to endothelial cell monolayers by fluorescence spectroscopy; assay type: cell-based; details: alone or in complex with LDL
THP-1 monocytes = assay: Monocyte morphology changes (differentiation into macrophages); assay type: cell-based, human; details: 12.5 or 25 μM, up to 7 days
Procedure: THP-1 monocytes in suspension were plated in 8-well chambered slides. […] Media containing appropriate treatment compounds was replaced after 4 days. After 4 days treatment, morphologic changes of the adherent cells were assessed by phase-contrast microscopy and photographed using an Olympus Microfire digital camera.

[3] = Aldolization of secoketoaldehyde 4a with atherosclerotic artery and blood fractions (1H NMR); assay type: in vitro ADME, human; details: in the presence of lyophilized PBS
Procedure: Aldolization of secoketoaldehyde 4a with atherosclerotic artery and bloodfractions. […] To this solution was added either a) atherosclerotic artery (2.1 mg) that had been homogenized in PBS (1 ml) in a tissue homogenizer and then lyophilized to dryness, b) lyophilized human blood (1 ml), c) lyophilized human plasma (1 ml) or d) PBS lyophilized (1 ml). At time points samples were removed and analyzed by ^1H NMR vide supra.

## CC(C)CCC[C@@H](C)[C@H]1CCC2C(CC=O)C([C@@]3(C)CC[C@H](O)CC3=O)CC[C@@]21C (stereo partly drawn) [4a, 3βHydroxy-5-oxo-5,6-secocholestan-6-al]
Neuronal cell lines
  cytotoxicity towards neuronal cell lines: cytotoxic
[1]
  SR-A expression: did not increase expression of either receptor
CD36; J774A.1, 25 μM compound complexed with LDL (100 μg/ml protein), 6 h
  CD36 expression: little or no effect
CD36; cultured macrophages, compound in the absence of LDL
  CD36 expression: did not increase expression of either receptor
[2]; 0-25 μM, 4 h, P<0.001
  recruitment (migration) of macrophages: dose-dependent recruitment of macrophages
[2]; compound co-incubated with BSA
  migration of macrophages: macrophage migration still occurs
[2]; compound complexed with native LDL (100 μg/ml)
  migration of macrophages: no significant migration
E-selectin (CD62E); HAAE-1, 1.25 μM complexed with LDL (100 μg/mL protein)
  induction of E-selectin levels: 2 fold
E-selectin (CD62E); HAAE-1, 50 μM complexed with LDL (100 μg/mL protein)
  induction of E-selectin levels: about 8 fold
E-selectin (CD62E); HAAE-1, not complexed with LDL
  selectin (E-selectin) expression: no effects
VCAM-1 (CD106); HAAE-1, 25 μM compound in the presence of LDL, 4 h
  VCAM-1 levels: remain unchanged
VCAM-1 (CD106); HAAE-1, not complexed with LDL
  integrin expression (VCAM-1): no effects
U-937 monocytes cells
  adhesion of U-937 monocytes to endothelial cell monolayers, above that of LDL alone: neither ozonolysis product 4a nor 5a, alone or in complex with LDL, nor CuOx-LDL significantly increased adhesion
THP-1 monocytes
  THP-1 monocyte differentiation into macrophages (adherence, morphology): neither became adherent nor developed the aforementioned morphological changes
[3]
  aldolization of 4a: no aldolization

Reference: patent publication US20100003711A1, “Methods to identify therapeutic agents” (THE SCRIPPS RESEARCH INSTITUTE, priority 2005, published 2010)
